Assay results published in patent US20240139221A1, “TREATMENT OF HPV-INDUCED NEOPLASIA” (priority 2022, published 2024).
Like-named read-outs stand apart in the source and are kept apart here.

Key:
[1] = Hygroscopicity by DVS at 25° C.; assay type: physicochemical; conditions: DVS 25° C.; for D. (%) Cycle 1: Desorption cycle 1; for D. (%) Cycle 2: Desorption cycle 2; for S. (%) Cycle 1: Sorption cycle 1; for S. (%) Cycle 2: Sorption cycle 2
Procedure: Hygroscopicity was investigated by DVS at 25° C., using the following method: […]

[2] = Behavior under compression, grinding simulation and granulation simulation (XRPD); assay type: physicochemical
Procedure: About 10 mg of Compound I monofumarate Pattern 1 (Example 7) was compressed for 5 minutes at 10 MPa with a hydraulic press. XRPD characterization was performed to investigate the polymorphic behavior under compression.
About 10 mg of Compound I monofumarate Pattern 1 (Example 7) was ground manually with a mortar and pestle for 5 min. Form transformation and degree of crystallinity was evaluated by XRPD.
Water or ethanol was added drop wise to about 10 mg of Compound I monofumarate Pattern 1 (Example 7) until solids were wetted sufficiently. The samples were ground manually with a mortar and pestle for 3 minutes. Samples are dried under ambient condition for 10 min. Form transformation and degree of crystallinity were evaluated by XRPD.

[3] = Approximate solubility in solvents at 25° C. and 50° C., visual observation; assay type: physicochemical; conditions: thermodynamic from solid
Procedure: The maximum volume of each solvent added was 1 mL. Approximate solubility was determined by visual observation.
Maximum volume of each solvent added was 1 mL. Approximate solubility was determined by visual observation.

[4] = Tablet stability study (purity by HPLC); assay type: physicochemical
Procedure: Tablets were prepared using the excipients and excipient ratios shown in the first column of the following tables. The tablets were then stored under the conditions indicated and periodically sampled and tested for purity by HPLC.

[5] = Solubility in buffers, water and simulated vaginal fluid at 37° C.; conditions: for solubility at 0.5 h / solubility at 2 h: 37 °C, thermodynamic from solid; for pH of solution at 2 hrs: 37° C.
Procedure: About 4 mg of Compound I Pattern 1 was added into 2 mL of buffer solution.
(§1) Solubility was tested in five media, pH 3.0 citrate buffer, pH 4.5 acetate buffer, pH 6.8 phosphate buffer, water, simulated vaginal fluid (pH 4.2) at 37° C. for 0.5 h and 2 h.
The salt amount used is equivalent to 10 mg anhydrous free base. […] The obtained clear solutions were analyzed by pH meter for pH, and solubility was determined by observation.
as §1

[6] = Bulk stability (accelerated stability, one week; HPLC and XRPD)
Procedure: Bulk stability: Accelerated stability experiments were conducted at 25° C./92% RH and 40° C./75% RH in an open container, 60° C. in a tight container for one week.
Samples were characterized by XRPD and HPLC and inspected for color change.
Accelerated stability experiments were conducted at 25° C./92% RH in an open container, at 40° C./75% RH in an open container, and at 60° C. in a tight container for one week.

[7] = ground manually with mortar and pestle for 5 min
[8] = excipients PC (7.5%) + MCC (91.46%) + MgS (1%)
[9] = excipients PC (7.5%) + Mannitol (91.46%) + MgS (1%)
[10] = excipients PEO-15 (25%) + MCC (74%) + MgS (1%)
[11] = excipients PEO-15 (25%) + Mannitol (74%) + MgS (1%)
[12] = pH 4.2, fassgf or other biorelevant
[13] = 25° C., 92% RH, open container, one week
[14] = 40° C., 75% RH, open container, one week
[15] = 60° C., tight container, one week

In the case of CCOC(=O)[C@H](C)NP(=O)(COCCn1cnc2c(OC)nc(N)nc21)OCc1ccccc1.O=C(O)/C=C/C(=O)O (mixture of isomers) [Compound I monofumarate, (±)-(2S)-Ethyl-2-((((2-(2-amino-6-methoxy-9H-purin-9-yl)-ethoxy)-methyl)-(benzyloxy)-phosphoryl)-amino)-propionate monofumarate], the “D. (%) Cycle 1” value ([1]; 0% RH) is reported as 0.49%, the “D. (%) Cycle 1” value ([1]; 10% RH) is reported as 0.62% and the “D. (%) Cycle 1” value ([1]; 20% RH) is reported as 0.71%. The “D. (%) Cycle 1” value ([1]; 30% RH) was 0.81%, the “D. (%) Cycle 1” value ([1]; 40% RH) was 0.93% and the “D. (%) Cycle 2” value ([1]; 0% RH) was 0.09%. The “D. (%) Cycle 2” value ([1]; 10% RH) was 0.15%, the “D. (%) Cycle 2” value ([1]; 20% RH) was 0.35% and the “D. (%) Cycle 2” value ([1]; 30% RH) was 0.47%. The “D. (%) Cycle 2” value ([1]; 40% RH) was 0.56%, the “D. (%) Cycle 2” value ([1]; 50% RH) was 0.67% and the “D. (%) Cycle 2” value ([1]; 60% RH) was 0.85%. For the same molecule, the “D. (%) Cycle 2” value ([1]; 70% RH) was 1.04%, the “D. (%) Cycle 2” value ([1]; 80% RH) was 1.30% and the “D. (%) Cycle 2” value ([1]; 90% RH) was 1.84%. For the same molecule, the “D. (%) Cycle 2” value ([1]; 95% RH) was 2.89%, the “S. (%) Cycle 1” value ([1]; 0% RH) was 0.49% and the “S. (%) Cycle 1” value ([1]; 10% RH) was 0.56%. For the same molecule, the “S. (%) Cycle 1” value ([1]; 20% RH) was 0.66%, the “S. (%) Cycle 1” value ([1]; 30% RH) was 0.76% and the “S. (%) Cycle 1” value ([1]; 40% RH) was 0.86%. For the same molecule, the “S. (%) Cycle 1” value ([1]; 50% RH) was 0.71%, the “S. (%) Cycle 1” value ([1]; 60% RH) was 0.85% and the “S. (%) Cycle 1” value ([1]; 70% RH) was 1.02%. The “S. (%) Cycle 1” value ([1]; 80% RH) was 1.27%, the “S. (%) Cycle 1” value ([1]; 90% RH) was 1.78% and the “S. (%) Cycle 1” value ([1]; 95% RH) was 2.89%. The “S. (%) Cycle 2” value ([1]; 0% RH) was 0.09%, the “S. (%) Cycle 2” value ([1]; 10% RH) was 0.18% and the “S. (%) Cycle 2” value ([1]; 20% RH) was 0.27%. The “S. (%) Cycle 2” value ([1]; 30% RH) was 0.37%, the “S. (%) Cycle 2” value ([1]; 40% RH) was 0.47% and the water uptake ([1]; up to 95% RH) was “about 2.9%”. For the same molecule, the “degree of crystallinity on grinding (XRPD)” value [2, 7] was “crystallinity slightly decreased”, the “form transformation on grinding (XRPD)” value [2, 7] was “no form change was observed” and the “form transformation on granulation simulation (XRPD)” value ([2]; wetted with water or ethanol, ground 3 minutes, dried 10 min) was “neither in ethanol, nor in water form change was observed”. For the same molecule, the solubility ([3]; 25 °C, organic solvent or mixture, Table 14, ACN, 25° C., read-out: Solubility (mg/mL) 25° C.) was 20 to 25 mg/mL, the solubility ([3]; 25 °C, organic solvent or mixture, Table 14, Acetone, 25° C., read-out: Solubility (mg/mL) 25° C.) was 50 to 100 mg/mL and the solubility ([3]; 25 °C, organic solvent or mixture, Table 14, DCM, 25° C., read-out: Solubility (mg/mL) 25° C.) was under 2 mg/mL. It also gave a solubility ([3]; 25 °C, organic solvent or mixture, Table 14, EA, 25° C., read-out: Solubility (mg/mL) 25° C.) of under 2 mg/mL, a solubility ([3]; 25 °C, organic solvent or mixture, Table 14, EtOH, 25° C., read-out: Solubility (mg/mL) 25° C.) of over 100 mg/mL and a solubility ([3]; 25 °C, organic solvent or mixture, Table 14, Heptanes, 25° C., read-out: Solubility (mg/mL) 25° C.) of under 2 mg/mL. For the same molecule, the solubility ([3]; 25 °C, organic solvent or mixture, Table 14, IPA, 25° C., read-out: Solubility (mg/mL) 25° C.) was 50 to 100 mg/mL, the solubility ([3]; 25 °C, organic solvent or mixture, Table 14, IPAc, 25° C., read-out: Solubility (mg/mL) 25° C.) was under 2 mg/mL and the solubility ([3]; 25 °C, organic solvent or mixture, Table 14, MEK, 25° C., read-out: Solubility (mg/mL) 25° C.) was 20 to 25 mg/mL. For the same molecule, the solubility ([3]; 25 °C, organic solvent or mixture, Table 14, MTBE, 25° C., read-out: Solubility (mg/mL) 25° C.) was under 2 mg/mL, the solubility ([3]; 25 °C, organic solvent or mixture, Table 14, MeOH, 25° C., read-out: Solubility (mg/mL) 25° C.) was over 100 mg/mL and the solubility ([3]; 25 °C, organic solvent or mixture, Table 14, THF, 25° C., read-out: Solubility (mg/mL) 25° C.) was over 100 mg/mL. The solubility ([3]; 25 °C, organic solvent or mixture, Table 14, Toluene, 25° C., read-out: Solubility (mg/mL) 25° C.) was under 2 mg/mL, the solubility ([3]; 25 °C, water, Table 14, Water, 25° C., read-out: Solubility (mg/mL) 25° C.) was 14 to 17 mg/mL and the solubility ([3]; 50 °C, organic solvent or mixture, Table 14, ACN, 50° C., read-out: Solubility (mg/mL) 50° C.) was 20 to 33 mg/mL. For the same molecule, the solubility ([3]; 50 °C, organic solvent or mixture, Table 14, Acetone, 50° C., read-out: Solubility (mg/mL) 50° C.) was 125 to 167 mg/mL, the solubility ([3]; 50 °C, organic solvent or mixture, Table 14, DCM, 50° C., read-out: Solubility (mg/mL) 50° C.) was under 10 mg/mL and the solubility ([3]; 50 °C, organic solvent or mixture, Table 14, EA, 50° C., read-out: Solubility (mg/mL) 50° C.) was under 10 mg/mL. It also gave a solubility ([3]; 50 °C, organic solvent or mixture, Table 14, EtOH, 50° C., read-out: Solubility (mg/mL) 50° C.) of 250 to 500 mg/mL, a solubility ([3]; 50 °C, organic solvent or mixture, Table 14, Heptanes, 50° C., read-out: Solubility (mg/mL) 50° C.) of under 10 mg/mL and a solubility ([3]; 50 °C, organic solvent or mixture, Table 14, IPA, 50° C., read-out: Solubility (mg/mL) 50° C.) of 71 to 84 mg/mL. It also gave a solubility ([3]; 50 °C, organic solvent or mixture, Table 14, IPAc, 50° C., read-out: Solubility (mg/mL) 50° C.) of under 10 mg/mL, a solubility ([3]; 50 °C, organic solvent or mixture, Table 14, MEK, 50° C., read-out: Solubility (mg/mL) 50° C.) of 22 to 25 mg/mL and a solubility ([3]; 50 °C, organic solvent or mixture, Table 14, MTBE, 50° C., read-out: Solubility (mg/mL) 50° C.) of under 10 mg/mL. For the same molecule, the solubility ([3]; 50 °C, organic solvent or mixture, Table 14, MeOH, 50° C., read-out: Solubility (mg/mL) 50° C.) was over 500 mg/mL, the solubility ([3]; 50 °C, organic solvent or mixture, Table 14, THF, 50° C., read-out: Solubility (mg/mL) 50° C.) was 250 to 500 mg/mL and the solubility ([3]; 50 °C, organic solvent or mixture, Table 14, Toluene, 50° C., read-out: Solubility (mg/mL) 50° C.) was under 10 mg/mL. For the same molecule, the solubility ([3]; 50 °C, water, Table 14, Water, 50° C., read-out: Solubility (mg/mL) 50° C.) was 22 to 25 mg/mL, the “purity by HPLC, 0 months” value [4, 8] was 99.81 and the “purity by HPLC, 1 month 25 C./60% RH” value [4, 8] was 98.04. For the same molecule, the “purity by HPLC, 1 month 40 C./75% RH” value [4, 8] was 84.92, the “purity by HPLC, 0 months” value [4, 9] was 99.61 and the “purity by HPLC, 1 month 25 C./60% RH” value [4, 9] was 98.77. For the same molecule, the “purity by HPLC, 1 month 40 C./75% RH” value [4, 9] was 85.26, the “purity by HPLC, 0 months” value [4, 10] was 99.03 and the “purity by HPLC, 1 month 25 C./60% RH” value [4, 10] was 97.76. The “purity by HPLC, 1 month 40 C./75% RH” value [4, 10] was 83.13, the “purity by HPLC, 0 months” value [4, 11] was 97.95 and the “purity by HPLC, 1 month 25 C./60% RH” value [4, 11] was 97.04. For the same molecule, the “purity by HPLC, 1 month 40 C./75% RH” value [4, 11] was 87.09, the solubility at 0.5 h ([5]; pH 3, aqueous buffer) was over 2 mg/mL and the solubility at 2 h ([5]; pH 3, aqueous buffer) was over 2 mg/mL. It also gave a solubility at 0.5 h [5, 12] of over 2 mg/mL, a solubility at 2 h [5, 12] of over 2 mg/mL and a solubility at 0.5 h ([5]; pH 4.5, aqueous buffer) of over 2 mg/mL. It also gave a solubility at 2 h ([5]; pH 4.5, aqueous buffer) of over 2 mg/mL, a solubility at 0.5 h ([5]; pH 6.8, aqueous buffer) of over 2 mg/mL and a solubility at 2 h ([5]; pH 6.8, aqueous buffer) of over 2 mg/mL. The solubility at 0.5 h ([5]; water) was over 2 mg/mL, the solubility at 2 h ([5]; water) was over 2 mg/mL and the “pH of solution at 2 hrs” value ([5]; Simulated vaginal fluid (pH adjusted with 0.2N NaOH)) was “(5.39)”. The “pH of solution at 2 hrs” value ([5]; Water) was “(3.11)”, the “pH of solution at 2 hrs” value ([5]; pH 3.0 100 mM citrate buffer) was “(3.05)” and the “pH of solution at 2 hrs” value ([5]; pH 4.5 50 mM acetate buffer) was “(4.36)”. For the same molecule, the “pH of solution at 2 hrs” value ([5]; pH 6.8 50 mM phosphate buffer) was “(6.49)”, the XRPD after storage ([6]; 25° C., 84% RH, open container, 2 days) was “No change” and the “HPLC (purity) after storage” value [6, 13] was 98.2%. The XRPD after storage [6, 13] was “No change”, the “HPLC (purity) after storage” value [6, 14] was 95.6% and the XRPD after storage [6, 14] was “No change”. For the same molecule, the “HPLC (purity) after storage” value [6, 15] was 95.5%, the XRPD after storage [6, 15] was “No change” and the “HPLC (purity), Initial” value ([6]; initial, before storage) was 98.6%.
